Laboratory results reported in the supplement of paper PMC11061612.

Columns and labels:
[1] = test system: KP-4 (Pancreatic Carcinoma); assay: Bliss excess, mean over the matrix (fraction); higher = more synergy
Procedure, shortened: (§1)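 Cell lines grown in DMEM/F12 or RPMI with 10% FBS were plated in 1536-well plates and held 24 hours at 37°C, 5% CO2 before 72 hours of exposure to two-drug dose matrices, with DMSO typically at 0.2%. CellTiter-Glo 2.0 luminescence gave viability, which was converted to inhibition. Vehicle wells were set to 0 and blank wells to 1. Combination Emax is the second-highest inhibition in the matrix, and Bliss excess is the observed combination effect minus the expected EA + EB − EA·EB, where EA and EB are the single-agent effects.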

[2] = test system: BxPC-3 (Pancreatic Carcinoma); assay: combination Emax (second highest fraction inhibited in the dose matrix, 72 h); higher = more inhibition; extreme values may be limits of the assay
Procedure, shortened: as §1

ES6 (Ewing's Sarcoma) = assay: as above
Procedure, shortened: as §1

GAK (Melanoma) = assay: as above
Procedure, shortened: as §1

[3] = test system: IA-LM (Non-Small Cell Lung Carcinoma); assay: as above
Procedure, shortened: as §1

[4] = test system: KP-4 (Pancreatic Carcinoma); assay: as above
Procedure, shortened: as §1

[5] = test system: LCLC-103H (Non-Small Cell Lung Carcinoma); assay: as above
Procedure, shortened: as §1

[6] = test system: MDA-MB-415 (Breast Carcinoma); assay: as above
Procedure, shortened: as §1

[7] = test system: MONO-MAC-6 (Acute Myeloid Leukemia); assay: as above
Procedure, shortened: as §1

NCI-H226 (Mesothelioma) = assay: as above
Procedure, shortened: as §1

[8] = test system: NCI-H3118 (Head and Neck Carcinoma); assay: as above
Procedure, shortened: as §1

[9] = test system: RCC-JW (Kidney Carcinoma); assay: as above
Procedure, shortened: as §1

[10] = test system: SK-CO-1 (Colorectal Carcinoma); assay: as above
Procedure, shortened: as §1

[11] = test system: T84 (Colorectal Carcinoma); assay: as above
Procedure, shortened: as §1

[12] = test system: NCI-H1876 (Small Cell Lung Carcinoma); assay: Bliss excess, mean over the matrix (fraction); higher = more synergy
Procedure, shortened: as §1

[13] = test system: NCI-H596 (Other Solid Carcinomas); assay: as above
Procedure, shortened: as §1

[14] = test system: OAW-28 (Ovarian Carcinoma); assay: as above
Procedure, shortened: as §1

[15] = test system: SNU-407 (Colorectal Carcinoma); assay: as above
Procedure, shortened: as §1

[16] = test system: NCI-H1876 (Small Cell Lung Carcinoma); assay: combination Emax (second highest fraction inhibited in the dose matrix, 72 h); higher = more inhibition; extreme values may be limits of the assay
Procedure, shortened: as §1

[17] = test system: NCI-H596 (Other Solid Carcinomas); assay: as above
Procedure, shortened: as §1
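Throughout, for Bliss excess, mean over the matrix: after 72 h of two-drug dosing.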

Row | Structure (SMILES) | Bliss excess [1] | combination Emax [2] | combination Emax (ES6 (Ewing's Sarcoma)) | combination Emax (GAK (Melanoma)) | combination Emax [3] | combination Emax [4] | combination Emax [5] | combination Emax [6] | combination Emax [7] | combination Emax (NCI-H226 (Mesothelioma)) | combination Emax [8] | combination Emax [9] | combination Emax [10] | combination Emax [11] | Bliss excess [12] | Bliss excess [13] | Bliss excess [14] | Bliss excess [15] | combination Emax [16] | combination Emax [17]
1 | N#Cc1cnc(Nc2cc(NC[C@H]3CNCCO3)c(C(F)(F)F)cn2)cn1 [SRA737] + O=c1[nH]cc(F)c(=O)[nH]1 [5-Fluorouracil] (first compound max 10 µM, 7x7, partner max 20 µM) | 0.0334 | 0.555 | 0.161 | 0.448 | 0.0378 | 0.376 | 0.559 | 0.381 | 1 | 0.145 | 0.575 | 0.21 | 0.654 | 0.785 | – | – | – | – | – | –
2 | Cc1c2c(nn1C)CSCc1cc(n(C)n1)CSc1cc(c3ccccc3c1)OCCCc1c(C(=O)O)n(C)c3c-2c(Cl)ccc13 [AZD5991] + CC(=O)O[C@H]1C(=O)[C@@]2(C)[C@H]([C@H](OC(=O)c3ccccc3)[C@]3(O)C[C@H](OC(=O)[C@H](O)[C@@H](NC(=O)c4ccccc4)c4ccccc4)C(C)=C1C3(C)C)[C@]1(OC(C)=O)CO[C@@H]1C[C@@H]2O [Paclitaxel] (first compound max 1 µM, 7x7, partner max 3 µM) | -0.0288 | 0.686 | 0.312 | 0.548 | 0.199 | 0.965 | 0.91 | 0.838 | 1 | 0.378 | 0.973 | 0.737 | 0.858 | 0.701 | – | – | – | – | – | –
3 | O=C(c1cc(Cc2n[nH]c(=O)c3ccccc23)ccc1F)N1CCN(C(=O)C2CC2)CC1 [Olaparib] + COc1nnc2ccc(N3CCC(c4ccc(OCCN5CCN(C)C(=O)[C@H]5C)cc4)CC3)nn12 [AZD5153] (first compound max 10 µM, 7x7, partner max 1 µM) | -0.0266 | 0.403 | 0.292 | 0.451 | 0.352 | 0.532 | 0.343 | 0.362 | 0.882 | 0.376 | 0.519 | 0.38 | 0.7 | 0.0881 | – | – | – | – | – | –
4 | C[C@@H](Oc1cc(-c2cnn(C3CCNCC3)c2)cnc1N)c1c(Cl)ccc(F)c1Cl [Crizotinib] + CC1=C(C(=CC=C1)Cl)NC(=O)C2=CN=C(S2)NC3=CC(=NC(=N3)C)N4CCN(CC4)CCO [Dasatinib] (first compound max 10 µM, 7x7, partner max 2 µM) | 0.0493 | 0.938 | 0.751 | 0.694 | 0.601 | 0.848 | 0.722 | 0.323 | 0.947 | 0.558 | 0.881 | 0.851 | 0.954 | 0.58 | – | – | – | – | – | –
5 | N#Cc1cnc(Nc2cc(NC[C@H]3CNCCO3)c(C(F)(F)F)cn2)cn1 [SRA737] + C=CCn1c(=O)c2cnc(Nc3ccc(N4CCN(C)CC4)cc3)nc2n1-c1cccc(C(C)(C)O)n1 [AZD1775] (first compound max 10 µM, partner max 1 µM) | 0.0595 | 0.613 | 0.349 | 0.841 | 0.311 | 0.597 | 0.711 | 0.318 | 1 | 0.226 | 0.876 | 0.456 | 0.631 | 0.853 | – | – | – | – | – | –
6 | C[C@@H](Nc1cc(F)cc(F)c1)c1cc(C(=O)N(C)C)cc2c(=O)cc(N3CCOCC3)oc12 [AZD8186] + C1CN(CCC1(C(=O)N[C@@H](CCO)C2=CC=C(C=C2)Cl)N)C3=NC=NC4=C3C=CN4 [AZD5363] (first compound max 10 µM, 7x7, partner max 10 µM) | -0.0583 | 0.323 | 0.365 | 0.261 | 0.215 | 0.249 | 0.417 | 0.834 | 0.547 | 0.295 | 0.519 | 0.537 | 0.725 | 0.337 | – | – | – | – | – | –
7 | CS(=O)(=O)CCNCc1ccc(-c2ccc3ncnc(Nc4ccc(OCc5cccc(F)c5)c(Cl)c4)c3c2)o1 [Lapatinib] + Cn1cnc2c(F)c(Nc3ccc(Br)cc3Cl)c(C(=O)NOCCO)cc21 [Selumetinib] (first compound max 10 µM, 7x7, partner max 10 µM) | 0.0641 | 0.909 | 0.553 | 0.722 | 0.318 | 0.382 | 0.309 | 0.389 | 0.437 | 0.228 | 0.653 | 0.988 | 0.886 | 0.763 | – | – | – | – | – | –
8 | Cc1c2c(nn1C)CSCc1cc(n(C)n1)CSc1cc(c3ccccc3c1)OCCCc1c(C(=O)O)n(C)c3c-2c(Cl)ccc13 [AZD5991] + CS(=O)(=O)CCNCc1ccc(-c2ccc3ncnc(Nc4ccc(OCc5cccc(F)c5)c(Cl)c4)c3c2)o1 [Lapatinib] (first compound max 1 µM, 7x7, partner max 10 µM) | -0.0211 | 0.483 | 0.515 | 0.352 | 0.297 | 0.15 | 0.2 | 0.558 | 1 | 0.145 | 0.723 | 0.981 | 0.471 | 0.469 | – | – | – | – | – | –
9 | C[C@@H](Oc1cc(-c2cnn(C3CCNCC3)c2)cnc1N)c1c(Cl)ccc(F)c1Cl [Crizotinib] + Cn1cnc2c(F)c(Nc3ccc(Br)cc3Cl)c(C(=O)NOCCO)cc21 [Selumetinib] (first compound max 10 µM, 7x7, partner max 10 µM) | 0.0259 | 0.439 | 0.59 | 0.851 | 0.245 | 0.838 | 0.412 | 0.275 | 0.991 | 0.393 | 0.627 | 0.665 | 0.989 | 0.576 | – | – | – | – | – | –
10 | CN(CCO)CC[C@H](CSc1ccccc1)Nc1ccc(S(=O)(=O)NC(=O)c2ccc(N3CCC([C@@H](O)c4ccccc4-c4ccc(Cl)cc4)CC3)cc2)cc1S(=O)(=O)C(F)(F)F [AZD4320] + CS(=O)(=O)CCNCc1ccc(-c2ccc3ncnc(Nc4ccc(OCc5cccc(F)c5)c(Cl)c4)c3c2)o1 [Lapatinib] (first compound max 1 µM, 7x7, partner max 10 µM) | -0.0251 | 0.486 | 0.971 | 0.272 | 0.539 | 0.186 | 0.488 | 0.917 | 0.885 | 0.309 | 0.561 | 1 | 0.97 | 0.886 | – | – | – | – | – | –
11 | CS(=O)(=O)CCNCc1ccc(-c2ccc3ncnc(Nc4ccc(OCc5cccc(F)c5)c(Cl)c4)c3c2)o1 [Lapatinib] + NC1(c2ccc(-c3nc4ccn5c(=O)[nH]nc5c4cc3-c3ccccc3)cc2)CCC1 [MK-2206] (first compound max 10 µM, 7x7, partner max 10 µM) | -0.0389 | 0.614 | 0.879 | 0.872 | 0.487 | 0.275 | 0.538 | 0.972 | 0.671 | 0.164 | 0.783 | 0.964 | 0.793 | 0.832 | 0.0885 | -0.045 | 0.0285 | 0.0808 | 0.948 | 0.822
